Data set [1] in a line: Stability in C57BL/6 mouse plasma assessed as parent compound remaining at 100 uM measured after 24 hrs in presence of alteplase by HPLC analysis. The class given is ADME, cell-free. To be noted: read-out: Stability.
The nature of data set [2]: Stability in C57BL/6 mouse plasma assessed as drug degradation by measuring parent compound remaining at 100 uM measured after 5 hrs in presence of alteplase by HPLC analysis. It is filed as ADME, cell-free. To be noted: read-out: Stability.
Data set [3] is described as follows: Stability in C57BL/6 mouse plasma assessed as parent compound remaining at 100 uM measured after 24 hrs by HPLC analysis. To be noted: read-out: Stability. The class given is ADME, cell-free.
A short description of data set [4]: Stability in C57BL/6 mouse plasma assessed as drug degradation by measuring parent compound remaining at 100 uM measured after 5 hrs by HPLC analysis. The class given is ADME, cell-free. Conditions: read-out: Stability.
Data set [5] is described as follows: Stability in C57BL/6 mouse plasma assessed as drug degradation at 100 uM measured after 5 hrs in presence of alteplase by HPLC analysis. The class given is ADME, cell-free.
Data set [6] can be described thus: Drug uptake in mouse Primary neuron at 100 nM incubated for 60 mins by inverted confocal microscopic analysis relative to control. It is filed as ADME, cell-based. To be noted: 1 h, 0.1 µM.
Data set [7] in a line: Drug uptake in mouse Primary neuron at 500 nM incubated for 60 mins by inverted confocal microscopic analysis relative to control. The class given is ADME, cell-based. Conditions: 1 h, 0.5 µM.

*1 amine or outer side, *2 acyl side, *3 side chain or, on linkers, in order; H or OH if unused. Where a SMILES comes first, the peptide text is derived from it. Bridges are numbered along the chain shown (N, C = ends). X2 = CC(C)C[C@H](C(=O)[C@H](CCCCNC(=O)c1ccc(-c2c3ccc(=[N+](C)C)cc-3oc3cc(N(C)C)ccc23)c(C(=O)[O-])c1)N[*:2])C(=O)[*:1]

For the compound `CC[C@H](C)[C@@H]1NC(=O)[C@@H]2CSSC[C@@H]3NC(=O)[C@H](C(C)C)NC(=O)[C@H](CC(=O)O)NC(=O)[C@H](CO)NC(=O)[C@H](CCC(=O)O)NC(=O)[C@H]([C@@H](C)CC)NC(=O)[C@H](CO)NC(=O)[C@H](CO)NC(=O)[C@H](CC(C)C)C(=O)[C@H](CCCCNC(=O)c4ccc(-c5c6ccc(=[N+](C)C)cc-6oc6cc(N(C)C)ccc56)c(C(=O)[O-])c4)NC(=O)[C@@H]4CSSC[C@H](NC(=O)[C@H](CC(=O)O)NC(=O)[C@H](CO)NC(=O)[C@H](CC(=O)O)NC(=O)[C@H](CCCNC(=N)N)NC(=O)[C@H](CCCNC(=N)N)NC(=O)[C@H](CSSC[C@H](NC1=O)C(=O)N[C@@H](CCCNC(=N)N)C(=O)NCC(=O)N[C@@H](CC(N)=O)C(=O)NCC(=O)N[C@@H](Cc1ccc(O)cc1)C(=O)N4)NC(=O)[C@H](CCCNC(=N)N)NC(=O)[C@H](CCCNC(=N)N)NC(=O)[C@H](CCCNC(=N)N)NC(=O)[C@H](CCCNC(=N)N)NC(=O)[C@H](CC(C)C)NC(=O)[C@H]([C@@H](C)CC)NC(=O)[C@H](CCCNC(=N)N)NC(=O)[C@@H]1CCCN1C3=O)C(=O)N1CCC[C@H]1C(=O)NCC(=O)N[C@@H](C)C(=O)N2` (SSIESDVCPRILRRRRCRRDSDCPGACICRGNGYC; disulfide 8-27, 17-29, 23-35; linker N-C via X2), the remaining at 24 h, 100 µM in data set [1] and in data set [3] was 90% throughout. Moreover, the remaining at 5 h, 100 µM in data set [2] and in data set [4] was 93% each time. Moreover, the Stability entry in data set [5] is listed as “Unstable”. Further, the Drug uptake in data set [6] turned out to be 75.9%; in data set [7] it was 85.7%.

Values taken from ChEMBL document CHEMBL6114943, “Engineered Cyclotide Blocks Neuronal Excitotoxicity” (J Med Chem, 2025).
